Experimental data taken from patent US7273875B2, “Naphthyridine derivatives, their preparation and their use as phosphodiesterase isoenzyme 4 (PDE4) inhibitors” (Novartis AG, priority 2001, dated 2007).
Counter-ions that a name gives are not always drawn.

What was measured:
human PDE4D = target: T1, human PDE4D (Homo sapiens, UniProt Q08499); test: PDE4 isoenzyme inhibition assay (SPA), PDE4D; format: biochemical; details: [3H]-cAMP, 1 μM cAMP, 30-60 minutes at room temperature, 1% DMSO
T1 construct: PDE4 cDNA constructs containing the coding regions of the three isoenzymes; made in house; host or cells: Sf21 insect cells (baculovirus, Bac-To-Bac)
Description: PDE4 Isoenzyme Inhibition Assay
Cloning: GATEWAY flanked PDE4 cDNA constructs containing the coding regions of the three isoenzymes, human PDE4A, human PDE4B, and human PDE4D are generated by PCR and transposed into the GATEWAY shuttle vector pDONOR-201. In addition a 6-histidine tag is introduced by PCR onto the carboxyl terminal end of each of the constructs to facilitate protein purification. Following sequence verification, the PDE4 constructs are transposed into the GATEWAY expression vector pDEST-8, Positive recombinants are selected and transposed into E. coli strain DH10Bac and bacmid produced transfected into SF21 cells using Bac-To-Bac (Invitrogen Life Technologies). Positive transfections are selected and used to generate high titer viral stocks for use in protein expression.
PDE4 Expression: Sf21 cells are grown to a density of 2×10^6 cells/ml and infected with human PDE4A, PDE4B or PDE4D3 containing baculovirus to a multiplicity of infection (m.o.i.) of 1 for 72 hours. The infected cells are harvested by centrifugation at 1,400 g for 4 minutes at 4° C. and the cell pellets are frozen at −80° C. Sf21 (Spodoptera frugiperda 21) insect cells are routinely maintained at densities between […] and 3×10^6 cells/ml in SF00 Serum Free Medium (Invitorgen Life Technologies). Sf21 cells ([…]) are resuspended in 100 ml cold (4° C.) Lysis Buffer (50 mM Na2HPO4, 200 mM NaCl, 10 mM Imidazole). Cells are incubated on ice for 30 minutes then centrifuged at 15,000 g for 20 minutes at 4° C.
PDE4 Purification: The 6 Histidine-tagged PDE4 proteins are isolated from crude cell lysates by a batch-wise Ni-NTA purification strategy (QIAGEN). N-NTA resin is first pre-rinsed to remove ethanol preservative and equilibrated with Lysis Buffer. Cell lysate is added, (10 ml 50% Ni-NTA slurry resin per 50 ml lysate), and gently rotated on a mixer at 4° C. for 1-2 hours. The sample is then centrifuged at 1,000 g for 5 minutes at 4° C. using Denley benchtop centrifuge. The supernatant is removed and the resin is washed 3 times with 50 ml ice cold Wash Buffer (50 mM Na2HPO4, 300 mM NaCl and 20 mM imidazole) followed by centrifugation at 1,000 g for 5 min at 4° C. The 6His-tagged protein is eluted from the resin with 3×5 ml ice cold Elution Buffer (50 mM NaH2PO4, 300 mM NaCl, 250 mM imidazole) and collected by centrifugation at 1,000 g for 5 minutes at 4° C. The supernatants are then pooled before buffer exchange and concentration using a VivaScience 20 ml SK 0.2 μM Concentrator. Samples are aliquoted and stored at −20° C.
PDE4 Assay: The assay is based on Amersham Pharmacia Biotech Scintillation Proximity Assay (SPA) technology. Enzyme is diluted with enzyme dilution buffer (10 mM Tris-HCl, pH7.5 containing 1 mM EDTA) in order to obtain between 10-30% total substrate hydrolysis during the assay. The enzymatic reaction is started by adding 10 μl diluted enzyme to 80 μl substrate (0.1 μCi [3H]-cAMP, 1 μM cAMP) and 10 μl inhibitor solution in a 96-well microtiter plate. After 30-60 minutes incubation at room temperature the reaction is stopped by adding 50 μl PDE SPA beads (20 mg/ml). After 30 minutes the plate is centrifuged (3000 g, 10 minutes) and counted (Packard TopCount).
Inhibitor stock solutions are prepared in 100% dimethylsulphoxide (DMSO) and diluted with DMSO/water to achieve 10 concentrations to cover the range of 0-100% inhibition. The concentration of DMSO is kept constant at 1% (v/v) throughout the assay.
The concentration at which 50% inhibition occurs (IC50) is determined from inhibition—concentration curves in a conventional manner.

T1 sequence (Q08499 1-673 isoform Q08499-2): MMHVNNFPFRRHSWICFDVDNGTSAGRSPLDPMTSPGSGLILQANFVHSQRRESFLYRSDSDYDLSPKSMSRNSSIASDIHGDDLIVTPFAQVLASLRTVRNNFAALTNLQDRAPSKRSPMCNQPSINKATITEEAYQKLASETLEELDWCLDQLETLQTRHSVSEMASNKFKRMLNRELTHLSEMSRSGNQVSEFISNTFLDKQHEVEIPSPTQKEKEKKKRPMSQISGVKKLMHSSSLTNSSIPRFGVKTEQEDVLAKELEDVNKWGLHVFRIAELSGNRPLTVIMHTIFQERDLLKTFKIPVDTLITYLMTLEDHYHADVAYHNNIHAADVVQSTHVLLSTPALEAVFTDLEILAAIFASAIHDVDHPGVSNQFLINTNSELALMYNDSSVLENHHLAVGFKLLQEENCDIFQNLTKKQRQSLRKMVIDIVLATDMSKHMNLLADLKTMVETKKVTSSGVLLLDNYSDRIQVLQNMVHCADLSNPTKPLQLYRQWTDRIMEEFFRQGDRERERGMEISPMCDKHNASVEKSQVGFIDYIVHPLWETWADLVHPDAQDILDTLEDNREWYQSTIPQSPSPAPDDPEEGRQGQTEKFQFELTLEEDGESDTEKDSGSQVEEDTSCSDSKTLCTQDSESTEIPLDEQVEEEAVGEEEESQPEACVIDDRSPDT

SMILES	melting point [°C]	IC50 (human PDE4D) [nM]
N#Cc1cccc(-c2nc(C3CCC(C(=O)O)CC3)cc3cccnc23)c1 (stereo not drawn) (as salt: potassium) [Example 3, 4-[8-(3-Cyano-phenyl)-[1,7]naphthyridin-6-yl]-cyclohexanecarboxylic acid]	> 250	
O=C(O)C1CCC(c2cc3cccnc3c(-c3cccc(OC(F)(F)F)c3)n2)CC1 (stereo not drawn) [Example 14, 4-[8-(3-Trifluoromethoxyphenyl)-[1,7]naphthyridin-6-yl]-cyclohexanecarboxylic acid]		57
CCOC(=O)C1CCC(c2cc3cccnc3c(-c3cccc(C#N)c3)n2)CC1 (stereo not drawn) [Example 1, 4[8-(3-Cyano-phenyl)-[1,7]naphthyridin-6-yl]-cyclohexanecarboxylic acid ethyl ester]		38
O=C(O)C1CCC(c2cc3cccnc3c(-c3cccc(F)c3)n2)CC1 (stereo not drawn) [Example 12, 4-[8-(3-Fluorophenyl)-[1,7]naphthyridin-6-yl]-cyclohexanecarboxylic acid]		21
COc1cccc(-c2nc(C3CCC(C(=O)O)CC3)cc3cccnc23)c1 (stereo not drawn) [Example 10, 4-[8-(3-Methoxy-phenyl)-[1,7]naphthyridin-6-yl]-cyclohexanecarboxylic acid]	209 to 212	25
CSc1cccc(-c2nc(C3CCC(C(=O)O)CC3)cc3cccnc23)c1 (stereo not drawn) [Example 15, 4-[8-(3-Methylsulfanyl-phenyl)-[1,7]naphthyridin-6-yl]-cyclohexanecarboxylic acid]	177.6 to 178.2	9
N#Cc1cccc(-c2nc(C3CCC(C(=O)O)CC3)cc3cccnc23)c1 (stereo not drawn) [Example 3, 4-[8-(3-Cyano-phenyl)-[1,7]naphthyridin-6-yl]-cyclohexanecarboxylic acid]		9
